Reference: patent US20150297573A1, “TPL2 KINASE INHIBITORS FOR PREVENTING OR TREATING DIABETES AND FOR PROMOTING Beta-CELL SURVIVAL” (INSERM (Institut National De La Santé Et De La Recherche …, priority 2012, published 2015)
Like-named read-outs stand apart in the source and are kept apart here.

How the values were obtained:
[1] = test system: p46/p54 c-Jun N-terminal kinases (JNK); details: INS-1E cells
Description: (§1) 2D and 3B: 72 h after the first 40 nM siRNA transfection, INS-1E cells were treated or not, as described above. Phosphorylation and total protein amount were analyzed by Western blotting as described above. […] Data are expressed as ratio of phosphorylated on total protein amount and as fold of phosphorylation over basal in cells without treatment.

p90RSK [2] = details: islets from C57BL/6 mice; Tpl2 inhibitor 3 μM; cytokine mix 20 min
Description: as §1

ERK1/2 [3] = details: islets from C57BL/6 mice; Tpl2 inhibitor 3 μM; cytokine mix 20 min
Description: as §1

ERK1/2 [4] = details: human islets; Tpl2 inhibitor 3 μM 2 h; cytokine mix 20 min
Description: Human islets were isolated, cultured 24-72 h for recovery in CMRL medium containing 10% SVF, treated with KRBH buffer with or without Tpl2 inhibitor (3 μM) during 2 h and then stimulated or not with a cytokine mix (IL-1β (100 U/ml), TNF-α (500 U/ml), and IFNγ(100 U/ml)) for 20 min. Lysates were subjected to western blot analysis with antibodies against phosphorylated ERK1/2 (1:1000) or β-actin (1:2000). […] Data are expressed as ratio of phosphorylated ERK2 on β-actin amount and as a fold increase over basal in islets without treatment. Data are expressed as the means±SEM. *P<0.05, vs stimulus effect in control cells.
Human pancreases were harvested from five brain-dead non-obese non-diabetic donors in agreement with the French Agence de la Biomedecine and the local Institutional Ethical Committee. […]
Human islets were isolated, cultured 24-72 h for recovery in CMRL medium containing 10% SVF, treated with KRBH buffer with or without Tpl2 inhibitor (3 μM) during 2 h and then stimulated or not with a cytokine mix (IL-1β (100 U/ml), TNF-α (500 U/ml), and IFNγ (100 U/ml)) for 20 min. […] Data are expressed as ratio of phosphorylated ERK2 on b-actin amount and as a fold increase over basal in islets without treatment. Data are expressed as the means±SEM. *P<0.05, vs stimulus effect in control cells.

p90RSK [5] = assay: p90RSK phosphorylation in INS-1E β-cells (Western blotting); type: cell-based, rat; details: INS-1E cells, Tpl2 inhibitor 3 μM
Description: (§2) Quantification of three to five experiments is shown.
(§3) The rat β-cell line INS-1E was provided by Dr. Maechler (Department of Cell Physiology and Metabolism, Faculty of Medicine, University of Geneva, Geneva, Switzerland). Cells (passages 60-95) were maintained in culture as monolayer at 37° C. in humidified atmosphere with 5% CO2, using RPMI 1640 medium containing 11.1 mM glucose, and supplemented with 7.5% heat-inactivated FCS, 1 mM sodium pyruvate, 10 mM HEPES, 2 mM glutamine, 50 μM β-mercaptoethanol, 100 U/ml penicillin, and 100 μg/ml streptomycin. Experiments were performed in INS-1E cells at ˜70% confluence in 6-well plates.
(§4) Tpl2 expression was specifically silenced in INS-1E cells using a validated set of 4 different 19-nucleotides siRNA duplexes (“ON-TARGETplus SMARTpool”, L-091828-01-0005) purchased from Dharmacon (ABgene Ltd, part of Thermo Fisher Scientific, Waltham, Mass.). […] Briefly, groups of 500,000 INS-1E cells were maintained in culture in the absence of penicillin and streptomycin for 24 h before being transfected with 40 nM siRNA-Lipofectamine™ 2000 complexes prepared in Opti-MEM medium at a 2:1 ratio. Medium was replaced 6 h after transfection with fresh antibiotic-free RPMI medium supplemented with 7.5% heat-inactivated FCS. […] The transfection efficiency was assessed using the “siGLO Green Transfection Indicator”. […]

INS-1E cells [6] = assay: Apoptosis of INS-1E cells (cleaved caspase-3 and cleaved PARP, Western blotting)
Description: FIG. 5: Apoptotic effects of inflammatory cytokines in INS-1E cells and in mouse pancreatic islets under Tpl2 inhibition. A and C: INS-1E β-cells were treated in RPMI medium containing BSA 0.5% (A) or 7.5% SVF (C) with or without Tpl2 inhibitor (3 μM) during 2 h and then stimulated or not with Tpl2 inhibitor (3 μM) and IL-1β alone (20 ng/ml) for 48 h (A) or the cytokine mixture (IL-1β (0.2 μg/ml), TNFα (50 ng/ml), and IFNγ (30 ng/ml) for 24 h (C). Lysates were subjected to Western blotting with antibodies against cleaved caspase-3 (1:1000), total and cleaved PARP (1:1000) or β-actin (1:5000). Quantification of four to ten independent experiments is shown. Data are expressed as ratio of cleaved caspase-3 or cleaved PARP on β-actin protein amounts, and as fold of these proteins over basal in cells without treatment. Data are presented as the means±SEM. *P<0.05, **P<0.01, and ***P<0.001 vs stimulus effect in control cells. B: INS-1E β-cells were stimulated or not in RPMI medium containing SVF 7.5% with each cytokine alone or a mixture of the three (IL-1β (0.2 ng/ml), TNFα (50 ng/ml), or IFNγ(30 ng/ml) for 24 h. Lysates were subjected to Western blotting with antibodies against cleaved caspase-3 (1:1000) or β-actin (1:5000). Dotted line represents 100% of caspase-3 amount from untreated control cells. Quantification of four independent experiments is shown. Data are expressed as a percentage of cleaved caspase-3 protein amount in untreated cells (caspase-3/β-actin protein amount ratio). Data are presented as the means±SEM. *P<0.05, **P<0.01, and ***P<0.001 vs untreated control cells.

[7] = test system: MEK, MK2, Src, protein kinase C, and EGF receptor; details: cited from earlier work
INS-1E cells [8] = details: Tpl2 inhibitor 5 μM, 24 h in conditioned medium of LPS-activated RAW264.7
Description: RAW264.7 macrophages were maintained in DMEM containing 5% (vol/vol) heat-inactivated fetal bovine serum and antibiotics at 37° C. and 5% CO2/95% air atmosphere. RAW264.7 macrophages were incubated for 24 h with LPS (Lipopolysaccharide) (0.5 ng/ml), and the resulting conditioned medium was transferred onto INS-1E cells treated with or without Tpl2 inhibitor (5 μM). Lysates were subjected to Western blotting with antibodies against cleaved caspase-3 (1:1000), or HSP90 (1:1000). […] Data are expressed as ratio of cleaved caspase-3 on HSP90 protein amount, and as fold of cleaved caspase-3 over basal in cells in control culture medium without Tpl2 inhibitor treatment.

p38 = p38 phosphorylation in INS-1E β-cells (Western blotting); type: cell-based, rat; details: INS-1E cells
Description: as §2
Tpl2 expression was specifically silenced in INS-1E cells using a validated set of 4 different 19-nucleotides siRNA duplexes (“ON-TARGETplus SMARTpool”, L-091828-01-0005) purchased from Dharmacon (ABgene Ltd, part of Thermo Fisher Scientific, Waltham, Mass.). […] Briefly, groups of 500,000 INS-1E cells were maintained in culture in the absence of penicillin and streptomycin for 24 h before being transfected with 40 nM siRNA-Lipofectamine™ 2000 complexes prepared in Opti-MEM medium at a 2:1 ratio. Medium was replaced 6 h after transfection with fresh antibiotic-free RPMI medium supplemented with 7.5% heat-inactivated FCS. A second transfection was performed 24 h after the first one to improve the transfection efficiency. The transfection efficiency was assessed using the “siGLO Green Transfection Indicator”. All assays were performed at least 50 h after the first transfection.
Proteins were visualized by enhanced chemiluminescence detection.

isolated mouse islets = details: Tpl2 inhibitor 3 μM, cytokine mix 24 h
Description: D: Isolated mouse islets were stimulated or not with a cytokine mix (IL-1β (1000 U/ml), TNF-α (1000 U/ml) and IFN-γ (1000 U/ml)) in RPMI medium for 24 h. The caspase-3/7 activity was measured using the “Caspase-Glo® 3/7 Assay”.
Pancreatic islets were isolated from male 10- to 12-weeks-old C57BL/6 mice following the injection of approximately 2 ml of 1 mg/ml collagenase XI through the bile duct. The pancreases were then removed, incubated under agitation at 37° C. for 9 minutes to complete the digestion and the islets were separated from the exocrine pancreatic tissue using a Histopaque-1077 gradient. The islets were then washed in cold PBS supplemented with 1.2 mM CaCl2, 1 mM MgCl2, and 5.6 mM glucose, handpicked under microscope, separated in groups composed of 200-300 islets and maintained in culture at 37° C. (95% air and 5% CO2) in RPMI 1640 containing 11.1 mM glucose and supplemented with 10% FCS, 2 mM glutamine, 100 units/ml penicillin and 100 μg/ml streptomycin for at least 24 h before being used.

db/db mice = test system: db/db mice
Description: FIG. 8: Effect of in vivo inhibition of Tpl2 on initial and body weights. Five-week-old db/db mice were obtained from Janvier Ltd and fed with a standard diet (4% fat) all over the study. All mice had free access to food and fresh water and were kept on a 12 h-day/12 h-night cycle. Body weights were recorded until the day of sacrifice prior to intraperitoneal (ip) administration of glucose, insulin or the daily injection of 2.5 mg/kg Tpl2 inhibitor or of the corresponding vehicle.
FIG. 9: Effect of in vivo inhibition of Tpl2 on fasting glucose and plasma insulin levels. Five-week-old db/db mice were obtained from Janvier Ltd and fed with a standard diet (4% fat) all over the study. All mice had free access to food and fresh water and were kept on a 12 h-day/12 h-night cycle. Fast and blood glucose concentrations were determined with a (Verio Onetouch, Lifescan, Johnson and Johnson Company) glucometer using blood sampled from the tail vein on mice receiving daily injection of 2.5 mg/kg Tpl2 inhibitor or of the corresponding vehicle. Serum insulin levels were quantified by radioimmunoassay (RIA rat insulin kit, Millipore) using blood sampled from the tail vein on the first day of the study or jugular arteries the day of the sacrifice.
(§5) FIG. 10: Effect of in vivo inhibition of Tpl2 on glucose tolerance and insulin tolerance. Five-week-old db/db mice were obtained from Janvier Ltd and fed with a standard diet (4% fat) all over the study. All mice had free access to food and fresh water and were kept on a 12 h-day/12 h-night cycle. Mice received daily injection of 2.5 mg/kg Tpl2 inhibitor or of the corresponding vehicle. Glucose tolerance tests were performed by ip administration of 1-2 g/kg glucose after a 16 h overnight fast and blood glucose concentrations were determined with a (Verio Onetouch, Lifescan, Johnson and Johnson Company) glucometer using blood sampled from the tail vein. Insulin tolerance tests were carried out in a similar manner following the ip administration of 0.75 U insulin per kg body weight to non-fasted mice.
as §5, with “Five-week-old” for “FIG. 10: Effect of in vivo inhibition of Tpl2 on glucose tolerance and insulin tolerance. Five-week-old”, “Body weights were recorded until the day of sacrifice prior to intraperitoneal (ip) administration of glucose, insulin or the” for “Mice received”, “mice. Serum insulin levels were quantified by radioimmunoassay (RIA rat insulin kit, Millipore) using blood sampled from the tail vein on the first day of the study or jugular arteries the day of the sacrifice.” for “mice.”
The progressive development of type 2 diabetes as observed in db/db mice is associated with increased body weight, insulin resistance, hyperglycemia and impaired glucose tolerance.

ERK1/2 [9] = assay: ERK1/2 phosphorylation in INS-1E β-cells (Western blotting); type: cell-based, rat; details: INS-1E cells, Tpl2 inhibitor 3 μM
Description: as §2, §3, §4

human pancreatic islets = assay: Glucose-stimulated insulin secretion (stimulation index) of human islets exposed to cytokines; type: cell-based; details: Tpl2 inhibitor 3 μM, cytokine mix 72 h, stimulation index 20 mM/2.8 mM glucose
Description: Human islets were treated in RPMI medium containing 0.2% human albumin with or without Tpl2 inhibitor (3 μM) and/or Exendin-4 (20 nM) during 2 h and then stimulated or not with Tpl2 inhibitor (3 μM), Exendin-4 (20 nM) and/or a cytokine mixture (IL-1β (1000 U/ml), TNF-α (1000 U/ml) and IFN-γ (1000 U/ml) for 72 h, and then submitted to a glucose-response test in KRB buffer. The stimulation index is defined as the ratio of stimulated (20 mM glucose) to basal (2.8 mM glucose) insulin secretion. Each column represents the mean±SEM of 5 replicates (each replicate corresponds to islets from one human donor). *P<0.05, **P<0.01, and ***P<0.001 vs cytokine effect in control cells.
INS-1E cells, mouse (5-10 islets per condition) or human islets (500-2000 IEQ per condition) were preincubated at 37° C. during 2 h with or without Tpl2 inhibitor (3 μM) and Exendin-4 (20 nM), and then incubated for different times (0, 8, 16, 24, 36, 48 or 72 h) with or without Tpl2-inhibitor (3 μM), IL-1β alone (10000 U/ml, 20 μg/ml), a cytokine mix (IL-1β (100 U/ml, 0.2 ng/ml), TNF-α (500 U/ml, 50 ng/ml), and IFN-γ (100 U/ml, 30 ng/ml) for INS-1E cells and mouse islets; and IL-1β (1000 U/ml, 2 ng/ml), TNF-α (1000 U/ml, 28 ng/ml) and IFN-γ (1000 U/ml, 833 ng/ml) for human islets), and/or Exendin-4 (20 nM). […]

[10] = INS-1E cells, Tpl2 inhibitor 3 μM, IL-1β 20 ng/ml 48 h
[11] = INS-1E cells, Tpl2 inhibitor 3 μM, cytokine mix 24 h

N#Cc1cnc2cnc(NCc3cccnc3)cc2c1Nc1ccc(F)c(Cl)c1 [Tpl2 inhibitor, 4-(3-Chloro-4-fluorophenylamino)-6-(pyridine-3-yl-methylamino)-3-cyano-[1,7]napthyridine]
effect on IL-1β-induced p46/p54 JNK phosphorylation ([1]; 3 μM): no effect | effect on IL-1β-induced p46/p54 JNK phosphorylation ([1]; 10 μM (data not shown)): no effect | inhibition of cytokine-stimulated p90RSK phosphorylation (p90RSK [2]): efficient at inhibiting | inhibition of cytokine-stimulated ERK1/2 phosphorylation (ERK1/2 [3]): efficient at inhibiting | inhibition of phosphorylation/activation of ERK1/2 induced by the cytokine mixture (ERK1/2 [4]): significantly efficient at inhibiting | inhibition of IL-1β-induced p90RSK phosphorylation (p90RSK [5]; IL-1β 20 ng/ml 20 min, same extent as ERK1/2 (60%)): inhibited to the same extent | inhibition of cytokine-induced p90RSK phosphorylation (p90RSK [5]; cytokine mix 20 min, same extent as ERK1/2 (50-60%)): inhibited to the same extent | decrease in cleaved PARP level induced by IL-1β (INS-1E cells [6]; [10]): ~30% | decrease in cleaved caspase-3 level induced by IL-1β (INS-1E cells [6]; [10]): ~45% | decrease in cleaved PARP level induced by the mixture of cytokines (INS-1E cells [6]; [11]): ~25% | decrease in cleaved caspase-3 level induced by the mixture of cytokines (INS-1E cells [6]; [11]): ~30% | INS-1E cell apoptosis with Tpl2 inhibitor alone (INS-1E cells [6]; long term treatment, 3 μM, no cytokine): did not increase | inhibition or activation of other protein kinases ([7]; concentration <5 μM that prevents activation of the ERK1/2 cascade): No other protein kinase has been found to be inhibited or activated | selectivity over other related kinases (MEK, MK2, Src, protein kinase C, EGF receptor) ([7]; concentrations below 5 μM): significant selectivity | decrease of cleaved caspase-3 induced by macrophage conditioned medium (INS-1E cells [8]): around 55% | effect on IL-1β-induced p38 phosphorylation (p38; 3 μM): no effect | effect on IL-1β-induced p38 phosphorylation (p38; 10 μM (data not shown)): no effect | decrease of caspase-3/7 activity induced by the mixture of cytokines (isolated mouse islets): ~50% | body weights vs vehicle-treated db/db mice (db/db mice; 2.5 mg/kg daily ip, 2 weeks): not different | tolerance to glucose challenges (db/db mice; 2.5 mg/kg daily ip, after 7 days): significantly improved | insulin sensitivity (insulin tolerance test) (db/db mice; 2.5 mg/kg daily ip, after 14 days): significant improvement | serum insulin level at fast (db/db mice; 2.5 mg/kg daily ip, day 14, vehicle 11.3±1.2): 4.3 ± 0.4 ng/mL | blood glucose concentration at fast (db/db mice; 2.5 mg/kg daily ip, day 14, vehicle 258.6±40.7): 144.0 ± 15.5 mg/dL | toxicity (db/db mice; daily ip 2.5 mg/kg, 2 weeks): not toxic | suppression of IL-1β-induced ERK1/2 phosphorylation (ERK1/2 [9]; 2 h, IL-1β 20 ng/ml 20 min): 60% | suppression of cytokine-induced ERK1/2 phosphorylation (ERK1/2 [9]; cytokine mix IL-1β+TNF-α+IFN-γ 20 min): 50-60% | prevention of cytokine-induced insulin secretion failure (human pancreatic islets): ~50%
